Measured values as given in article PMC7177849, “Gut Microbial Catabolites of Tryptophan Are Ligands and Agonists of the Aryl Hydrocarbon Receptor: A Detailed Characterization” (International Journal of Molecular Sciences, 2020).
Several values for one entry are separate records, joined by “and”; a condition that tells them apart may be missing. Equal values may be shown once. Read-outs that look alike come from different tables or passages of the source.

Assays:
AhR [1] = target: T1, AhR (Homo sapiens, UniProt P35869); test: Immunofluorescence detection of nuclear translocation of the AhR in LS180 cells; type: cell-based; set-up: 0.1% V/V), TCDD (10 nM), and test MICT; host or cells: LS180 cells
T1 sequence (P35869 11-848): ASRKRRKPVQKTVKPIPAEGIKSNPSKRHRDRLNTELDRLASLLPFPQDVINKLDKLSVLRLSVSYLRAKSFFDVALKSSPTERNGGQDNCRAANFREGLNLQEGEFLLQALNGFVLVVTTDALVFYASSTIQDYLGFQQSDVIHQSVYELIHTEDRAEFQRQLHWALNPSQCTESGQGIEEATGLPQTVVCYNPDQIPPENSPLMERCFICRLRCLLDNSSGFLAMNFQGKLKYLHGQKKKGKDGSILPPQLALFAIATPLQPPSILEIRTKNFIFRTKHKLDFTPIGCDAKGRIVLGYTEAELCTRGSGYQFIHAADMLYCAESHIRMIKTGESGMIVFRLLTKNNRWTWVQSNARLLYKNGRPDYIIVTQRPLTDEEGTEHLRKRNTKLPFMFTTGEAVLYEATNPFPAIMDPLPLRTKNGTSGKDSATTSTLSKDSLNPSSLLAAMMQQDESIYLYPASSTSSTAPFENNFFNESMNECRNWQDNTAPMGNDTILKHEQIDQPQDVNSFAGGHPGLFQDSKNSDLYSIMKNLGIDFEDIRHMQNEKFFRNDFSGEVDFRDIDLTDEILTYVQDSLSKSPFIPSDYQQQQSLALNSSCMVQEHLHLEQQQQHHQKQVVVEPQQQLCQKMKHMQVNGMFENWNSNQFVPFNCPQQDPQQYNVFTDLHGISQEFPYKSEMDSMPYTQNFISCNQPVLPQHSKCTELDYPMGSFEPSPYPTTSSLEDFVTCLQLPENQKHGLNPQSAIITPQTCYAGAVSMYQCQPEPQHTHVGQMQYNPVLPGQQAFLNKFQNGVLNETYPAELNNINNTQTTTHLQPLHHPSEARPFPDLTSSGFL
Procedure: Figure 5 Effect of MICT on nuclear translocation of the AhR. LS180 cells were incubated for 90 min with vehicle (DMSO; 0.1% V/V), TCDD (10 nM), and test MICT. The experiments were performed in three consecutive cell passages with all tested compounds in duplication. Fluorescence images depict sub-cellular localization of AhR (upper panels) and nuclear staining by DAPI (lower panels). Representative micrographs are shown.
LS180 cells (60,000 cells/well) were plated on 8-well chambered slides (94.6140.802, Sarstedt, Nümbrecht, Germany) and allowed to grow overnight. Then, the cells were incubated with DMSO (0.1% V/V), TCDD (10 nM), IND (1000 µM), IPY (200 µM), 3MI (200 µM), TA (200 µM), IAC (100 µM), and IAD (200 µM). The staining procedure was described in detail elsewhere. The images were captured using an IX73 fluorescence microscope (Olympus, Tokyo, Japan). The immunofluorescence signal intensity (of the AhR antibody) in the nucleus was evaluated visually. For percentage calculation, approximately 500 cells from at least four randomly selected fields of view in each specimen were used.
Suppl. Table 1. Nuclear translocation of AhR – quantification of immunofluorescence.
LS180 cells were incubated for 90 min with MICT , vehicle or TCDD. Intracellular AhR was visualized with Alexa Fluor 488 labelled primary antibody. The whole staining protocol was performed in three independent experiments in technical duplicates. The AhR translocation was evaluated visually depending on the distinct signal intensity of AhR antibody in the nucleus and cytosol. For percentage calculation, approximately one hundred cells from at least four randomly selected fields of view in each

CYP1A1 mRNA = tested on: CYP1A1 mRNA; set-up: method as in PMID 24563545; conditions: cited from earlier work
AhR [2] = tested on: AhR; set-up: method as in PMID 26235394; conditions: 100 µM IND, HepG2 cells, 4 h; cited from earlier work
AhR [3] = tested on: AhR; set-up: method as in PMID 23973224; conditions: mouse H1L1.1c2 reporter cells; cited from earlier work
CYP1A1 promoter = test: Chromatin immunoprecipitation (ChIP), binding of the AhR to CYP1A1 promoter in LS180 cells; type: cell-based, human; conditions: 90 min
Procedure: Figure 7 MICT elicit the binding of the AhR to CYP1A1 promoter, as determined by the chromatin immunoprecipitation assay (ChIP). LS180 cells were incubated with vehicle, TCDD, and tested compounds, as described in Materials and Methods, and were then subjected to ChIP analysis. Bar graphs show binding of the AhR to CYP1A1 promoter as quantified by RT-PCR. The entire protocol was carried out in three consecutive cell passages. The data are expressed as a fold enrichment to vehicle-treated cells and show the mean ± SD from duplicates (technical replicates). DNA fragments amplified by PCR were resolved on 2% agarose gel (representative record from “exp 2” is shown).
LS180 cells (4 million) were seeded in a 60-mm dish in Dulbecco’s modified Eagle’s medium (D6546; Sigma Aldrich). The following day, the cells were incubated with DMSO (0.1% V/V), TCDD (10 nM), IND (1000 µM), IPY (200 µM), 3MI (200 µM), TA (200 µM), IAC (100 µM), and IAD (200 µM) for 90 min at 37 °C. ChIP assay was performed as we described in detail elsewhere.

[4] = LS180, 90 min, exp 1, TCDD 10 nM, Indole 1 mM, IAC 100 µM, others 200 µM
[5] = LS180, 90 min, exp 2, TCDD 10 nM, Indole 1 mM, IAC 100 µM, others 200 µM
[6] = LS180, 90 min, exp 3, TCDD 10 nM, Indole 1 mM, IAC 100 µM, others 200 µM
[7] = mean ± SD, n = 3, relative to TCDD-treated cells, LS180, 90 min
[8] = relative to TCDD-treated cells, LS180, 90 min, exp 1, same concentrations
[9] = relative to TCDD-treated cells, LS180, 90 min, exp 2, same concentrations
[10] = relative to TCDD-treated cells, LS180, 90 min, exp 3, same concentrations

SMILES | % positive AhR nuclei (AhR [1]; [4]) [%] | % positive AhR nuclei (AhR [1]; [5]) [%] | % positive AhR nuclei (AhR [1]; [6]) [%] | Ø AhR positive nuclei (AhR [1]; [7]) [%] | % relative AhR nuclei (AhR [1]; [8]) [%] | % relative AhR nuclei (AhR [1]; [9]) [%] | % relative AhR nuclei (AhR [1]; [10]) [%] | CYP1A1 mRNA induction (CYP1A1 mRNA; 50 µM TA, Caco-2 and cells) | induction of CYP1A1 mRNA (CYP1A1 mRNA; various human cells, 500–1000 µM IND) | activation of AhR (AhR [2]) | induction of CYP1A1 mRNA (AhR [2]) | % positive AhR nuclei (AhR [1]) | % relative AhR nuclei (AhR [1]) | Ø AhR positive nuclei (AhR [1]) [%] | agonist activity (AhR [3]) | binding of the AhR to the promoter of the CYP1A1 gene (CYP1A1 promoter)
Cc1c[nH]c2ccccc12 [3MI, skatole] | 65 | 72 | 62 | 105 ± 13.8 | 120 | 94 | 102 | – | – | – | – | – | – | – | – | –
NCCc1c[nH]c2ccccc12 [TA, tryptamine] | 44 | 65 | 66 | 91 ± 14.6 | 81 | 84 | 108 | induction | – | – | – | – | – | – | – | –
c1ccc2[nH]ccc2c1 [IND, indole] | – | – | – | – | – | – | – | – | moderate induction | achieved | achieved | 61% and 73% and 65% | 113% and 95% and 107% | 105 ± 9.2 | – | –
O=C(O)/C=C/c1c[nH]c2ccccc12 [IAC, indole-3-acrylate] | 51 | 61 | 73 | 98 ± 20.4 | 94 | 79 | 120 | – | – | – | – | – | – | – | – | –
NC(=O)Cc1c[nH]c2ccccc12 [IAD, indole-3-acetamide] | 46 | 73 | 42 | 83 ± 13.1 | 85 | 95 | 69 | – | – | – | – | – | – | – | – | –
O=Cc1c[nH]c2ccccc12 [IA, indole-3-aldehyde] | – | – | – | – | – | – | – | – | – | – | – | – | – | – | vigorous agonist activity | –
O=C(O)C(=O)Cc1c[nH]c2ccccc12 [IPY, indole-3-pyruvate] | 42 | 60 | 38 | 73 ± 9.0 | 78 | 78 | 62 | – | – | – | – | – | – | – | – | –
Clc1cc2c(cc1Cl)Oc1cc(Cl)c(Cl)cc1O2 [TCDD, 2,3,7,8-tetrachlorodibenzo-p-dioxin, reference compound] | 54 | 77 | 61 | – | – | – | – | – | – | – | – | – | – | – | – | enhanced
